Consider five molecules from patent US10570184B2, “GLP-1/glucagon receptor co-agonists for medical use” (Novo Nordisk A/S, priority 2014, dated 2020).

Each structure is given as a SMILES string. Starred links: 1 amine or outer side, 2 acyl side, 3 side chain; linkers in the order of their positions; H or OH if unused. Non-standard residues stand in square brackets, D forms with d. Residues, ends and D or L forms follow the SMILES beside them. Groups on a side chain read outwards from the residue. *: point of attachment. C18 diacid = O=C(O)CCCCCCCCCCCCCCCCC(=O)*; γGlu = O=C(O)[C@H](CCC(=O)[*:2])N[*:1]; Ac4c = NC1(C(=O)O)CCC1; AEEA = NCCOCCOCC(=O)O; Aib = CC(C)(N)C(=O)O

The data set can be described thus: Assay (III) ThT fibrillation assay for physical stability. Type of data set: physicochemical. To be noted: 250 μM in 10 mM HEPES buffer, 37° C., shaking 960 rpm. The method in brief: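 Glucagon derivative at 250 μM in 10 mM HEPES pH 7.5 with 1 μM ThT was incubated at 37 °C under 960 rpm orbital shaking. Fluorescence (ex 444/em 485 nm) was read every 20 min and fitted for lag time (t0−2τ) and kapp (1/τ). Recovery was soluble peptide after centrifugation/filtration, by RP-HPLC, as percent of initial.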

In the case of `CC[C@H](C)[C@H](NC(=O)[C@H](CC(C)C)NC(=O)[C@H](Cc1c[nH]c2ccccc12)NC(=O)[C@H](C)NC(=O)[C@@H](NC(=O)[C@H](Cc1ccccc1)NC(=O)[C@H](CC(=O)O)NC(=O)[C@H](CCCNC(=N)N)NC(=O)[C@H](C)NC(=O)[C@H](CCCNC(=N)N)NC(=O)[C@H](CCCNC(=N)N)NC(=O)[C@H](C)NC(=O)[C@H](CC(=O)O)NC(=O)[C@H](CC(C)C)NC(=O)[C@H](Cc1ccc(O)cc1)NC(=O)[C@H](CCCCN)NC(=O)[C@H](CO)NC(=O)[C@H](Cc1ccc(O)cc1)NC(=O)[C@H](CC(=O)O)NC(=O)[C@H](CO)NC(=O)[C@@H](NC(=O)[C@H](Cc1ccccc1)NC(=O)[C@@H](NC(=O)CNC(=O)[C@H](CCC(N)=O)NC(=O)C(C)(C)NC(=O)[C@@H](N)Cc1c[nH]cn1)[C@@H](C)O)[C@@H](C)O)C(C)C)C(=O)N[C@@H](CCCCNC(=O)CC[C@H](NC(=O)CC[C@H](NC(=O)COCCOCCNC(=O)COCCOCCNC(=O)CC[C@H](NC(=O)CCCCCCCCCCCCCCCCC(=O)O)C(=O)O)C(=O)O)C(=O)O)C(=O)N[C@H](C(N)=O)[C@@H](C)O` [Chem. 32, N^ε28-[(4S)-4-carboxy-4-[[(4S)-4-carboxy-4-[[2-[2-[2-[[2-[2-[2-[[(4S)-4-carboxy-4-(17-carboxyheptadecanoylamino)butanoyl]amino]ethoxy]ethoxy]acetyl]amino]ethoxy]ethoxy]acetyl]amino]butanoyl]amino]butanoyl]-[Aib2,Ala16,Arg20,Ala24,Ile27,Lys28]-Glucagon amide] (H-H[Aib]QGTFTSDYSKYLDARRARDFVAWLIK([γGlu-γGlu-AEEA-AEEA-γGlu-C18 diacid])T-NH2), the “ThT Assay Lag time (h) [Assay (III), pH 7.5]” value (“ThT Assay Lag time (h)” for short) came out at 45.0 h.

As for `CC[C@H](C)[C@H](NC(=O)[C@H](CC(C)C)NC(=O)[C@H](Cc1c[nH]c2ccccc12)NC(=O)[C@H](C)NC(=O)[C@@H](NC(=O)[C@H](Cc1ccccc1)NC(=O)[C@H](CC(=O)O)NC(=O)[C@H](CCC(N)=O)NC(=O)[C@H](C)NC(=O)[C@H](CCCNC(=N)N)NC(=O)[C@H](CCCNC(=N)N)NC(=O)[C@H](CO)NC(=O)[C@H](CCC(=O)O)NC(=O)[C@H](CC(C)C)NC(=O)[C@H](Cc1ccc(O)cc1)NC(=O)[C@H](CCCCN)NC(=O)[C@H](CO)NC(=O)[C@H](Cc1ccc(O)cc1)NC(=O)[C@H](CC(=O)O)NC(=O)[C@H](CO)NC(=O)[C@@H](NC(=O)[C@H](Cc1ccccc1)NC(=O)[C@@H](NC(=O)CNC(=O)[C@H](CCC(N)=O)NC(=O)C(C)(C)NC(=O)[C@@H](N)Cc1c[nH]cn1)[C@@H](C)O)[C@@H](C)O)C(C)C)C(=O)N[C@@H](CCCCNC(=O)CC[C@H](NC(=O)CC[C@H](NC(=O)COCCOCCNC(=O)COCCOCCNC(=O)CC[C@H](NC(=O)CCCCCCCCCCCCCCCCC(=O)O)C(=O)O)C(=O)O)C(=O)O)C(=O)N[C@H](C(N)=O)[C@@H](C)O` [Chem. 34, N^ε28-[(4S)-4-carboxy-4-[[(4S)-4-carboxy-4-[[2-[2-[2-[[2-[2-[2-[[(4S)-4-carboxy-4-(17-carboxyheptadecanoylamino)butanoyl]amino]ethoxy]ethoxy]acetyl]amino]ethoxy]ethoxy]acetyl]amino]butanoyl]amino]butanoyl]-[Aib2,Glu15,Ala24,Ile27,Lys28]-Glucagon amide] (H-H[Aib]QGTFTSDYSKYLESRRAQDFVAWLIK([γGlu-γGlu-AEEA-AEEA-γGlu-C18 diacid])T-NH2), the “ThT Assay Lag time (h)” value was 45.0 h.

With `CC[C@H](C)[C@H](NC(=O)[C@H](CC(C)C)NC(=O)[C@H](Cc1c[nH]c2ccccc12)NC(=O)[C@H](CCC(N)=O)NC(=O)[C@@H](NC(=O)[C@H](Cc1ccccc1)NC(=O)[C@H](CC(=O)O)NC(=O)[C@H](CCCNC(=N)N)NC(=O)[C@H](C)NC(=O)[C@H](CCCNC(=N)N)NC(=O)[C@H](CCCNC(=N)N)NC(=O)[C@H](CO)NC(=O)[C@H](CCC(=O)O)NC(=O)[C@H](CC(C)C)NC(=O)[C@H](Cc1ccc(O)cc1)NC(=O)[C@H](CCCNC(=N)N)NC(=O)[C@H](CO)NC(=O)[C@H](Cc1ccc(O)cc1)NC(=O)[C@H](CC(=O)O)NC(=O)[C@H](CO)NC(=O)[C@@H](NC(=O)[C@H](Cc1ccccc1)NC(=O)[C@@H](NC(=O)CNC(=O)[C@H](CCC(N)=O)NC(=O)C1(NC(=O)[C@@H](N)Cc2c[nH]cn2)CCC1)[C@@H](C)O)[C@@H](C)O)C(C)C)C(=O)N[C@@H](CCCCNC(=O)CC[C@H](NC(=O)COCCOCCNC(=O)CC[C@H](NC(=O)COCCOCCNC(=O)CC[C@H](NC(=O)COCCOCCNC(=O)CC[C@H](NC(=O)CC[C@H](NC(=O)CCCCCCCCCCCCCCCCC(=O)O)C(=O)O)C(=O)O)C(=O)O)C(=O)O)C(=O)O)C(=O)N[C@H](C(N)=O)[C@@H](C)O` [Chem. 36, N^ε28-[(4S)-4-carboxy-4-[[2-[2-[2-[[(4S)-4-carboxy-4-[[2-[2-[2-[[(4S)-4-carboxy-4-[[2-[2-[2-[[(4S)-4-carboxy-4-[[(4S)-4-carboxy-4-(17-carboxyheptadecanoylamino)butanoyl]amino]butanoyl]amino]ethoxy]ethoxy]acetyl]amino]butanoyl]amino]ethoxy]ethoxy]acetyl]amino]butanoyl]amino]ethoxy]ethoxy]acetyl]amino]butanoyl]-[Acb2,Arg12,Glu15,Arg20,Ile27,Lys28]-Glucagon amide] (H-H[Ac4c]QGTFTSDYSRYLESRRARDFVQWLIK([γGlu-AEEA-γGlu-AEEA-γGlu-AEEA-γGlu-γGlu-C18 diacid])T-NH2; N-terminus assumed), the “ThT Assay Lag time (h)” value amounted to 3.7 h.

Consider `CC[C@H](C)[C@H](NC(=O)[C@H](CC(C)C)NC(=O)[C@H](Cc1c[nH]c2ccccc12)NC(=O)[C@H](CCC(N)=O)NC(=O)[C@@H](NC(=O)[C@H](Cc1ccccc1)NC(=O)[C@H](CC(=O)O)NC(=O)[C@H](CCCNC(=N)N)NC(=O)[C@H](C)NC(=O)[C@H](CCCNC(=N)N)NC(=O)[C@H](CCCNC(=N)N)NC(=O)[C@H](CO)NC(=O)[C@H](CCC(=O)O)NC(=O)[C@H](CC(C)C)NC(=O)[C@H](Cc1ccc(O)cc1)NC(=O)[C@H](CCCNC(=N)N)NC(=O)[C@H](CO)NC(=O)[C@H](Cc1ccc(O)cc1)NC(=O)[C@H](CC(=O)O)NC(=O)[C@H](CO)NC(=O)[C@@H](NC(=O)[C@H](Cc1ccccc1)NC(=O)[C@@H](NC(=O)CNC(=O)[C@H](CCC(N)=O)NC(=O)C(C)(C)NC(=O)[C@@H](N)Cc1c[nH]cn1)[C@@H](C)O)[C@@H](C)O)C(C)C)C(=O)N[C@@H](CCCCNC(=O)CC[C@H](NC(=O)COCCOCCNC(=O)CC[C@H](NC(=O)COCCOCCNC(=O)CC[C@H](NC(=O)COCCOCCNC(=O)CC[C@H](NC(=O)CC[C@H](NC(=O)CCCCCCCCCCCCCCCCC(=O)O)C(=O)O)C(=O)O)C(=O)O)C(=O)O)C(=O)O)C(=O)N[C@H](C(N)=O)[C@@H](C)O` [Chem. 37, N^28-[(4S)-4-carboxy-4-[[2-[2-[2-[[(4S)-4-carboxy-4-[[2-[2-[2-[[(4S)-4-carboxy-4-[[2-[2-[2-[[(4S)-4-carboxy-4-[[(4S)-4-carboxy-4-(17-carboxyheptadecanoylamino)butanoyl]amino]butanoyl]amino]ethoxy]ethoxy]acetyl]amino]butanoyl]amino]ethoxy]ethoxy]acetyl]amino]butanoyl]amino]ethoxy]ethoxy]acetyl]amino]butanoyl]-[Aib2,Arg12,Glu15,Arg20,Ile27,Lys28]-Glucagon amide] (H-H[Aib]QGTFTSDYSRYLESRRARDFVQWLIK([γGlu-AEEA-γGlu-AEEA-γGlu-AEEA-γGlu-γGlu-C18 diacid])T-NH2; N-terminus assumed), for which the “ThT Assay Lag time (h)” value turned out to be 6.3 h.

On to `CC[C@H](C)[C@H](NC(=O)[C@H](CC(C)C)NC(=O)[C@H](Cc1c[nH]c2ccccc12)NC(=O)[C@H](CCC(N)=O)NC(=O)[C@@H](NC(=O)[C@H](Cc1ccccc1)NC(=O)[C@H](CCC(=O)O)NC(=O)[C@H](CCC(N)=O)NC(=O)[C@H](C)NC(=O)[C@H](CCCNC(=N)N)NC(=O)[C@H](CCCNC(=N)N)NC(=O)[C@H](CO)NC(=O)[C@H](CCC(=O)O)NC(=O)[C@H](CC(C)C)NC(=O)[C@H](Cc1ccc(O)cc1)NC(=O)[C@H](CCCCN)NC(=O)[C@H](CO)NC(=O)[C@H](CC(C)C)NC(=O)[C@H](CC(=O)O)NC(=O)[C@H](CO)NC(=O)[C@@H](NC(=O)[C@H](Cc1ccccc1)NC(=O)[C@@H](NC(=O)CNC(=O)[C@H](CCC(N)=O)NC(=O)C1(NC(=O)[C@@H](N)Cc2c[nH]cn2)CCC1)[C@@H](C)O)[C@@H](C)O)C(C)C)C(=O)N[C@@H](CCCCNC(=O)CC[C@H](NC(=O)COCCOCCNC(=O)COCCOCCNC(=O)CC[C@H](NC(=O)CC[C@H](NC(=O)CCCCCCCCCCCCCCCCC(=O)O)C(=O)O)C(=O)O)C(=O)O)C(=O)N[C@H](C(N)=O)[C@@H](C)O` [Chem. 38, N^ε28-[(4S)-4-carboxy-4-[[2-[2-[2-[[2-[2-[2-[[(4S)-4-carboxy-4-[[(4S)-4-carboxy-4-(17-carboxyheptadecanoylamino)butanoyl]amino]butanoyl]amino]ethoxy]ethoxy]acetyl]amino]ethoxy]ethoxy]acetyl]amino]butanoyl]-[Acb2,Leu10,Glu15,Glu21,Ile27,Lys28]-Glucagon amide] (H-H[Ac4c]QGTFTSDLSKYLESRRAQEFVQWLIK([γGlu-AEEA-AEEA-γGlu-γGlu-C18 diacid])T-NH2; N-terminus assumed), for which the “ThT Assay Lag time (h)” value is 45.0 h.
